Patent US20240101576A1, “HETEROCYCLIC INHIBITORS OF EGFR AND/OR HER2, FOR USE IN THE TREATMENT OF CANCER” (Scorpion Therapeutics, Inc., priority 2020, published 2024)

Columns and labels:
Type in all cases: cell-based
[1] = molecular target: T1, EGFR exon 19del (Ba/F3 cells) (Homo sapiens, UniProt P00533); assay: Inhibitor activity on EGFR phosphorylation (pEGFR AlphaLISA, 2 h), Ba/F3 EGFR exon 19del; conditions: read-out: Del19 IC50 (pEGFR)
Source text: (§1) Example B. Inhibitor Activity on EGFR phosphorylation (pEGFR)
(§2) EGFR mutant Ba/F3 cells were generated by transduction with retrovirus containing vectors expressing EGFR L858R, EGFR exon 19del, EGFR L858R/C797S, EGFR exon 20 NPG Ins D770_N771, EGFR exon 20 ASV Ins V769_D770, or EGFR exon 20 SVD Ins D770_N771 genes along with a puromycin selection marker. Transduced cells are selected with puromycin for 7 days and are then be transferred into culture media without Interleukin 3 (IL3). Surviving cells are confirmed to express EGFR by Western blot and maintained as a pool. CUTO14 cells were obtained from Dr. Robert C. Doebele at the University of Colorado. The IC50 date are included in Table 6 and Table 7.
(§3) 1.1 Cells are harvested from flask into cell culture medium and the cell number counted.
(§4) 1.2 Cells are diluted with culture medium to the desired density and 40 μL of cell suspension is added into each well of 384-well cell culture plate and the seeding density is 50K cells/well (Ba/F3) or 12.5K cells/well (CUTO14).
(§5) 2 Compound Preparation and Treatment
(§6) 2.1 Test compounds are dissolved to 10 mM in a DMSO stock solution. 45 μL of stock solution is transferred to a 384 polypropylene plate (pp-plate). Perform 3-fold, 10-point dilution via transferring 15 μL compound into 30 μL DMSO using a TECAN (EVO200) liquid handler.
(§7) 2.2 Spin plates at room temperature at 1,000 RPM for 1 minute.
(§8) 2.3 Transfer 5 nL of diluted compound from compound source plate into the cell plate.
(§9) 2.4 After compound treatment for 2 hours, perform pEGFR detection by AlphaLISA for compound treatment plates as described in “Detection” section.
(§10) 3 Detection by pEGFR AlphaLISA (Perkin-Elmer)
(§11) 3.1 Plates are removed from incubators and equilibrated at room temperature for 10 minutes, and media was removed
(§12) 3.2 10 μL of lysis buffer is added and plates shaken at 600 rpm for 1 hr.
(§13) 3.3 Prepare acceptor mix just before use and dispense 5 μL of acceptor mix to all the wells. Shake 350 rpm for Ihr in the dark
(§14) 3.4 Prepare donor mix under low light conditions prior to use. Dispense 5 μL of donor mix to all the wells. Mix well on the shaker, seal and wrap in aluminum foil and incubate 1.5 hrs at room temperature in the dark
(§15) 3.5 Transfer 18.5 μL mixture to OptiPlate 384, and read using an Envision. The IC50 date were included in Table 6 and Table 7.

[2] = molecular target: T2, EGFR exon 20 ASV Ins V769_D770 (Ba/F3 cells) (Homo sapiens, UniProt P00533, INS769ASV); assay: Inhibitor activity on EGFR-dependent cell growth (CellTiter-Glo, 72 h), Ba/F3 EGFR exon 20 ASV Ins; conditions: read-out: BaF3 ASV IC50
T2 construct: expressed in transfected cells; host or cells: Ba/F3 (murine pro-B cells), retroviral transduction, puromycin selection, IL3-independent pool
How it was run: (§16)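 IC50s derive from a sigmoidal dose–response fit of CellTiter-Glo signal. The signal was normalised between […]-treated cells and cell-free medium. Ba/F3 mutant-EGFR cells, seeded at 400–800/well depending on the line, had 72 h of exposure to a 10-point, 3-fold compound series.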

[3] = molecular target: T3, EGFR L858R/C797S (Ba/F3 cells) (Homo sapiens, UniProt P00533, C797S/L858R); assay: Inhibitor activity on EGFR phosphorylation (pEGFR AlphaLISA, 2 h), Ba/F3 EGFR L858R/C797S
T3 construct: expressed in transfected cells; host or cells: Ba/F3 (murine pro-B cells), retroviral transduction, puromycin selection, IL3-independent pool
Source text: as §1, §2, §3, §4, §5, §6, §7, §8, §9, §10, §11, §12, §13, §14, §15

EGFR WT (Ba/F3 cells) = molecular target: T4, EGFR WT (Ba/F3 cells) (Homo sapiens, UniProt P00533); assay: Inhibitor activity on EGFR-dependent cell growth (CellTiter-Glo, 72 h), Ba/F3 EGFR WT; conditions: read-out: BaF3 WT IC50
T4 construct: expressed in transfected cells; host or cells: Ba/F3 (murine pro-B cells), retroviral transduction, puromycin selection, maintained with EGF
How it was run: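 This growth assay used Ba/F3 cells that depend on wild-type EGFR and are kept in EGF without IL3. Compounds were made up as 10 mM DMSO stocks and diluted 3-fold over 10 points. 120 nL went onto 600 cells/well. After 72 hours, 40 μL CellTiter-Glo was added and luminescence read on EnVision after 30 min.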

EGFR L858R (Ba/F3 cells) [4] = molecular target: T5, EGFR L858R (Ba/F3 cells) (Homo sapiens, UniProt P00533, L858R); assay: Inhibitor activity on EGFR phosphorylation (pEGFR AlphaLISA, 2 h), Ba/F3 EGFR L858R
T5 construct: expressed in transfected cells; host or cells: Ba/F3 (murine pro-B cells), retroviral transduction, puromycin selection, IL3-independent pool
Source text: as §1, §2, §3, §4, §5, §6, §7, §8, §9, §10, §11, §12, §13, §14, §15

[5] = molecular target: T6, EGFR exon 20 FQEA Ins A763_V764 (Ba/F3 cells) (Homo sapiens, UniProt P00533, INS763FQEA); assay: Inhibitor activity on EGFR-dependent cell growth (CellTiter-Glo, 72 h), Ba/F3 EGFR exon 20 FQEA Ins; conditions: read-out: BaF3 FQEA IC50
T6 construct: expressed in transfected cells; host or cells: Ba/F3 (murine pro-B cells), retroviral transduction, puromycin selection, IL3-independent pool
How it was run: (§17)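 For each mutant line, growth depends on EGFR signalling in the absence of IL3. Density per well: 400 for L858R, 600 for the C797S double mutant, 800 for exon 19del and FQEA. Ten threefold dilutions were applied for 72 h. %Inhibition = 100×(DMSO − sample)/(DMSO − medium blank).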

EGFR L858R (Ba/F3 cells) [6] = molecular target: T5, EGFR L858R (Ba/F3 cells); assay: Inhibitor activity on EGFR-dependent cell growth (CellTiter-Glo, 72 h), Ba/F3 EGFR L858R; conditions: read-out: BaF3 L858R IC50
How it was run: as §17

[7] = molecular target: T7, EGFR exon 20 SVD Ins D770_N771 (Ba/F3 cells) (Homo sapiens, UniProt P00533, INS770SVD); assay: Inhibitor activity on EGFR-dependent cell growth (CellTiter-Glo, 72 h), Ba/F3 EGFR exon 20 SVD Ins; conditions: read-out: BaF3 SVD IC50
T7 construct: expressed in transfected cells; host or cells: Ba/F3 (murine pro-B cells), retroviral transduction, puromycin selection, IL3-independent pool
How it was run: as §16

[8] = molecular target: T3, EGFR L858R/C797S (Ba/F3 cells); assay: Inhibitor activity on EGFR-dependent cell growth (CellTiter-Glo, 72 h), Ba/F3 EGFR L858R/C797S; conditions: read-out: BaF3 L858R/C797S IC50
Source text: Example A. Inhibitor Activity on EGFR-Dependent Cell Growth
Cell lines are generated by transducing Ba/F3 cells with retroviruses containing vectors with EGFR WT, EGFR L858R, EGFR exon 19del, EGFR L858R/C797S, EGFR exon 20 NPG Ins D770_N771, EGFR exon 20 ASV Ins V769_D770, EGFR exon 20 SVD Ins D770_N771, or EGFR exon 20 FQEA Ins A763_V764 genes and a puromycin selection marker. Transduced cells are selected with puromycin for 7 days and are then be transferred into culture media without Interleukin 3 (IL3). EGFR WT cells are maintained with supplemental EGF. Surviving cells are confirmed to express EGFR by Western blot and maintained as a pool. The IC50 date were included in Table 6 and Table 7.
as §3
1.2 Cells are diluted with culture medium to the desired density and 40 μL of cell suspension is added into each well of 384-well cell culture plate and the seeding density is 800 (FQEA, exon 19del), 600 (WT, NPG, L858R/C797S), or 400 (ASV, SVD, L858R) cells/well.
as §5, §6, §7
2.3 Transfer 120 nL of diluted compound from compound source plate into the cell plate.
2.4 After compound treatment for 72 hours, perform CTG detection for compound treatment plates as described in “Detection” section.
3.1 Plates are removed from incubators and equilibrated at room temperature for 15 minutes.
3.2 Thaw the CellTiter Glo reagents and allow to equilibrate to room temperature before the experiment.
3.3 Add 40 μL of CellTiter-Glo reagent into each well (at 1:1 to culture medium). Then place the plates at room temperature for 30 min followed by reading on EnVision.
4.1 Inhibition activity is calculated following the formula below:
% Inhibition=100×(LumHC−LumSample)/(LumHC−LumLC) • where HC is obtained from cells treated with 0.1% DMSO only; and LC is obtained from culture medium only.
4.2 2. Calculate the IC50 by fitting the Curve using Xlfit (v5.3.1.3), equation 201.
Y=Bottom+(Top−Bottom)/(1+10^((Log IC50−X)*HillSlope))

[9] = molecular target: T1, EGFR exon 19del (Ba/F3 cells); assay: Inhibitor activity on EGFR-dependent cell growth (CellTiter-Glo, 72 h), Ba/F3 EGFR exon 19del; conditions: Ba/F3 EGFR exon 19del cell growth, read-out: BaF3 Del19 IC50
How it was run: as §17

[10] = molecular target: T8, EGFR exon 20 NPG Ins D770_N771 (Ba/F3 cells) (Homo sapiens, UniProt P00533, INS770NPG); assay: Inhibitor activity on EGFR-dependent cell growth (CellTiter-Glo, 72 h), Ba/F3 EGFR exon 20 NPG Ins; conditions: read-out: BaF3 NPG IC50
T8 construct: expressed in transfected cells; host or cells: Ba/F3 (murine pro-B cells), retroviral transduction, puromycin selection, IL3-independent pool
How it was run: as §16

EGFR (CUTO14 cells) = EGFR (CUTO14 cells) (Homo sapiens, UniProt P00533); assay: Inhibitor activity on EGFR phosphorylation (pEGFR AlphaLISA, 2 h), CUTO14 cells
Source text: as §1, §2, §3, §4, §5, §6, §7, §8, §9, §10, §11, §12, §13, §14, §15

T7 sequence (P00533 with tags, fused parts or gaps INS770SVD): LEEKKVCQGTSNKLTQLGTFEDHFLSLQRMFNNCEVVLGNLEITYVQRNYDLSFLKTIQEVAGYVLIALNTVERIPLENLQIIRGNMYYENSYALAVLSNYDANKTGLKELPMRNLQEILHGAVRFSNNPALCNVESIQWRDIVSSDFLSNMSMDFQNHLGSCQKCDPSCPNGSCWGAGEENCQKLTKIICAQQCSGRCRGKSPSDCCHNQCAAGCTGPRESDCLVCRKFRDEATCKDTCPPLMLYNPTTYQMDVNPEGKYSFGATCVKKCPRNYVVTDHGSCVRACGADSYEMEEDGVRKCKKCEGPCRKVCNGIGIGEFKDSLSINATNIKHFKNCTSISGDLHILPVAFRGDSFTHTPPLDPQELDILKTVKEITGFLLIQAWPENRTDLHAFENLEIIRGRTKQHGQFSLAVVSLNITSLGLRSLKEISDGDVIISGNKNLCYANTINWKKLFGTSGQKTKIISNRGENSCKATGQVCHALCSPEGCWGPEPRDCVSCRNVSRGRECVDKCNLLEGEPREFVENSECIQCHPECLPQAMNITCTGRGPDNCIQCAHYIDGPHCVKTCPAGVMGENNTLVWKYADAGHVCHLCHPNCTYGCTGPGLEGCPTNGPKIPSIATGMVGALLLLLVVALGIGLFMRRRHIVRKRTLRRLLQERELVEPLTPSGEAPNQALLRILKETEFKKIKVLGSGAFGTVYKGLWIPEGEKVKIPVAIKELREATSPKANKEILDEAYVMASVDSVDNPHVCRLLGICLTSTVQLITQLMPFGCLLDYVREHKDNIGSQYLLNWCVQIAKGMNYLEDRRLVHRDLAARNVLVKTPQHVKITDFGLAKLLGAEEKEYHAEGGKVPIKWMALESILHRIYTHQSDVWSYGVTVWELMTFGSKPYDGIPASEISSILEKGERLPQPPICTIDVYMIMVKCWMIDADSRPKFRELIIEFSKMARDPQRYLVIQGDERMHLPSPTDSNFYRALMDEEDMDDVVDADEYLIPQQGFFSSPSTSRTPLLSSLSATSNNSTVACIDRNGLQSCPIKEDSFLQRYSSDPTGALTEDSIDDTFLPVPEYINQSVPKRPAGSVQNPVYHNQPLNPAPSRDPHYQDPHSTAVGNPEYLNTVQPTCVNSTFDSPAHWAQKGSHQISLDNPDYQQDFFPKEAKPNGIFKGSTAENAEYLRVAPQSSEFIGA
T3 sequence (P00533 25-1210 C797S/L858R): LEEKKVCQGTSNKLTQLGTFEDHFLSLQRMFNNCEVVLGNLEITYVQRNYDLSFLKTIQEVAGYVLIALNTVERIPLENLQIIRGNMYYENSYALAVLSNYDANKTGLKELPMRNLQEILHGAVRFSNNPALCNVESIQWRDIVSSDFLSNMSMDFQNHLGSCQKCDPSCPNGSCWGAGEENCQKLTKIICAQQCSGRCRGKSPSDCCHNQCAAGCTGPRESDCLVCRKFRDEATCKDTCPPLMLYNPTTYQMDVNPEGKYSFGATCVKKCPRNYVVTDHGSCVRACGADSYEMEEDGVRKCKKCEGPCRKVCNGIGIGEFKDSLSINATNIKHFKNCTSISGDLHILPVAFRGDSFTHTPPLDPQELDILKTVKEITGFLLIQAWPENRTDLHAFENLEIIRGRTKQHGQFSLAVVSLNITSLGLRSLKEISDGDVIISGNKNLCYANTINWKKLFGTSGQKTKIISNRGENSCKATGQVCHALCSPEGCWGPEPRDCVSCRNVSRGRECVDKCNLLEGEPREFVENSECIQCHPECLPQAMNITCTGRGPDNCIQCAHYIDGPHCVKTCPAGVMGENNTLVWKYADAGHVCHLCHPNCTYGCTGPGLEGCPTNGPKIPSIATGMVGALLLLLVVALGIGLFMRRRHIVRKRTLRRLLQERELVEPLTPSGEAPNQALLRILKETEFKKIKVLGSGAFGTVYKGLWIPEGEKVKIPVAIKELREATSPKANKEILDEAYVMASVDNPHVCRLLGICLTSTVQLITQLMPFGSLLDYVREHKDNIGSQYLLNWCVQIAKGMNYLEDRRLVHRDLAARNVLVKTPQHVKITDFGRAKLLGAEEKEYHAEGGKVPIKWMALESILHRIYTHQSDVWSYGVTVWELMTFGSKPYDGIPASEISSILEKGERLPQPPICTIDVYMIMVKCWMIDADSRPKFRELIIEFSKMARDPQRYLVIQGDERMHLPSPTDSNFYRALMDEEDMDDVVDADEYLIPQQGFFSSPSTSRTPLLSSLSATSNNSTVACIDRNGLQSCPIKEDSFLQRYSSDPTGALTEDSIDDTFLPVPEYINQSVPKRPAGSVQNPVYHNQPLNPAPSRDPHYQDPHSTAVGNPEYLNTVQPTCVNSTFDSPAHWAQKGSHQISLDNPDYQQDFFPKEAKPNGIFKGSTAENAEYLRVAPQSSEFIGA
T4 sequence (P00533 25-1210): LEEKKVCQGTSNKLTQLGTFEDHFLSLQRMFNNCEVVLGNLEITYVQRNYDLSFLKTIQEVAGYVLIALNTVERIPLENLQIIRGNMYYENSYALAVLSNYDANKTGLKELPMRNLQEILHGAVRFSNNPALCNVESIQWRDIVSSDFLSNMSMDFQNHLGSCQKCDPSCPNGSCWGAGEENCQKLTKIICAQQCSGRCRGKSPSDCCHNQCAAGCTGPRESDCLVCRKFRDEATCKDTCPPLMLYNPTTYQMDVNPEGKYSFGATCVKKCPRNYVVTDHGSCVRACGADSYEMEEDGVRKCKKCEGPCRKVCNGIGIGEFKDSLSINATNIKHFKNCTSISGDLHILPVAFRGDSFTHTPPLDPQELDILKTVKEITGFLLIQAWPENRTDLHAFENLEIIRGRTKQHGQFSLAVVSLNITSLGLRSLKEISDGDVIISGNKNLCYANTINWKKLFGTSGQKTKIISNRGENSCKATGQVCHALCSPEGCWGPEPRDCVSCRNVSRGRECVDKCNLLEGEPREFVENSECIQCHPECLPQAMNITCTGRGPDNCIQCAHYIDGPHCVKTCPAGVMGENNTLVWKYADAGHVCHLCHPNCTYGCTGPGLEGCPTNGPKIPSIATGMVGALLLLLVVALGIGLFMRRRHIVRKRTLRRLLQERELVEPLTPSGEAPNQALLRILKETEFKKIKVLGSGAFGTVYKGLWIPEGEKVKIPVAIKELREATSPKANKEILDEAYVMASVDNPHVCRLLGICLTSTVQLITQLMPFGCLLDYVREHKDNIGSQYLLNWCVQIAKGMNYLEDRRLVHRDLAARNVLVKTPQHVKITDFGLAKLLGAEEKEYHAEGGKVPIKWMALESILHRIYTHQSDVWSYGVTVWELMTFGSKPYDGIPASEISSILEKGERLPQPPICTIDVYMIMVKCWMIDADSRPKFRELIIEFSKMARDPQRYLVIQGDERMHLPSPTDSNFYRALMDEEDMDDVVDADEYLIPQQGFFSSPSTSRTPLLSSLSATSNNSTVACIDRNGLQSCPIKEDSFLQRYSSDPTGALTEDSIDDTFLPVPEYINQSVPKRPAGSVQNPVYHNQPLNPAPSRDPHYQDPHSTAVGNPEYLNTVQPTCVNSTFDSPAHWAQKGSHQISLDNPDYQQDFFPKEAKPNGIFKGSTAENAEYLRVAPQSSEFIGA
T2 sequence (P00533 with tags, fused parts or gaps INS769ASV): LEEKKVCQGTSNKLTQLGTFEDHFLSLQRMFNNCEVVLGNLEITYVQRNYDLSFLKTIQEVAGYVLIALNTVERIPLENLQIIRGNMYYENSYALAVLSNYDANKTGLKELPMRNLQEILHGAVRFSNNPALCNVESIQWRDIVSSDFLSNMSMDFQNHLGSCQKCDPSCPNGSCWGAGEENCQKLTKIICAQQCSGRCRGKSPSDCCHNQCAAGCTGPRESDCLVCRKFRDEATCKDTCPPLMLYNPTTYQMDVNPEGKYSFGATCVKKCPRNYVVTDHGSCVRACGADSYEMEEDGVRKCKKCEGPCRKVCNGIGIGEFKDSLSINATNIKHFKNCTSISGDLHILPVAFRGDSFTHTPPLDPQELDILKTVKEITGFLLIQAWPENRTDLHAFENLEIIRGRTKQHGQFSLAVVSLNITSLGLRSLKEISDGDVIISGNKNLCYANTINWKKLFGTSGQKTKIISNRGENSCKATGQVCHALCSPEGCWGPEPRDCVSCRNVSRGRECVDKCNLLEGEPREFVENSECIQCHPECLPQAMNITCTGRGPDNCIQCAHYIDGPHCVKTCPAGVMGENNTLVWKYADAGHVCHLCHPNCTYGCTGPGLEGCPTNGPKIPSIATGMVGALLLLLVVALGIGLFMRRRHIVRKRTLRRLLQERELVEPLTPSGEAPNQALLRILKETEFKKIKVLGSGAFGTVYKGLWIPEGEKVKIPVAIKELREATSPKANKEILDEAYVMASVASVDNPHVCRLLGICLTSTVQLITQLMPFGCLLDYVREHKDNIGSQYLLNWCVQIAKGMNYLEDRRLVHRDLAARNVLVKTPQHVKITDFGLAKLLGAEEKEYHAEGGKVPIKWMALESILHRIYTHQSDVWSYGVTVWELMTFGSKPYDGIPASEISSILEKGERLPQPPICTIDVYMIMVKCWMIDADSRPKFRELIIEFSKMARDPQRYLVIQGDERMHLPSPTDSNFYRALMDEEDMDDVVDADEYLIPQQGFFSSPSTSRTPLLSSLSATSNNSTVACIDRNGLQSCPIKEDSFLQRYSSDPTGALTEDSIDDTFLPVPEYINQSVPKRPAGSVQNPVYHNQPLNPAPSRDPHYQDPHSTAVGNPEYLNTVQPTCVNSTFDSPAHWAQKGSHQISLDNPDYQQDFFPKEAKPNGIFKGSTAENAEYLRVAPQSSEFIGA

Row | IC50 [1] [µM] | IC50 [2] [µM] | IC50 [3] [µM] | IC50 (EGFR WT (Ba/F3 cells)) [µM] | IC50 (EGFR L858R (Ba/F3 cells) [4]) [µM] | IC50 [5] [µM] | IC50 (EGFR L858R (Ba/F3 cells) [6]) [µM] | IC50 [7] [µM] | IC50 [8] [µM] | IC50 [9] [µM] | IC50 [10] [µM] | IC50 (EGFR (CUTO14 cells)) [µM] | SMILES
1 | < 0.1 | 0.1 to 1 | < 0.1 | > 1 | < 0.1 | 0.1 to 1 | < 0.1 | 0.1 to 1 | < 0.1 | < 0.1 | – | – | COCC[C@H]1CNC(=O)c2c1[nH]c(-c1ccncn1)c2Nc1cccc(Cl)c1OC [445b]
2 | – | < 0.1 | < 0.1 | 0.1 to 1 | – | – | < 0.1 | < 0.1 | < 0.1 | < 0.1 | < 0.1 | < 0.1 | COCC[C@H]1CNC(=O)c2c1[nH]c(-c1ccnc(C)n1)c2Nc1cccc(F)c1OC [453b]
3 | < 0.1 | < 0.1 | < 0.1 | 0.1 to 1 | < 0.1 | < 0.1 | < 0.1 | < 0.1 | < 0.1 | < 0.1 | – | – | COCC[C@@H]1CNC(=O)c2c1[nH]c(-c1ccncn1)c2Nc1cccc(F)c1OC [Compound 447a]
4 | < 0.1 | 0.1 to 1 | 0.1 to 1 | > 1 | < 0.1 | 0.1 to 1 | < 0.1 | 0.1 to 1 | < 0.1 | < 0.1 | – | – | COc1c(Cl)cccc1Nc1c(-c2ccncc2F)[nH]c2c1C(=O)NCC21CCOCC1 [Compound 778, 3′-[(3-chloro-2-methoxyphenyl)amino]-2′-(3-fluoropyridin-4-yl)-5′,6′-dihydro-1′H-spiro[oxane-4,7′-pyrrolo[3,2-c]pyridin]-4′-one]
5 | < 0.1 | < 0.1 | < 0.1 | 0.1 to 1 | < 0.1 | < 0.1 | < 0.1 | < 0.1 | < 0.1 | < 0.1 | – | – | COc1ncc2nccc(-c3[nH]c4c(c3Nc3cccc(F)c3C)C(=O)NCC4)c2n1 [Compound 794, 3-[(3-fluoro-2-methylphenyl)amino]-2-[2-methoxypyrido[3,2-d]pyrimidin-8-yl]-1H,5H,6H,7H-pyrrolo[3,2-c]pyridin-4-one]
